We go through 31 compounds from US6716605B2, “Indole derivatives having an antiviral activity” (Shionogi & Co., Ltd., priority 1998, dated 2004).

One data set deals with HIV-1 integrase (Human immunodeficiency virus type 1 group M subtype B, UniProt P04585). The data set can be described thus: HIV-1 integrase inhibition assay (microtiter plate, substrate DNA/target DNA, OD 405 nm). It counts as biochemical. Here is the method:
The DNA solutions were annealed with each complement by slowly cooling after heating.
After coating each well of microtiter plates (obtained from NUNC) with 50 μl of the above solution at 4° C. overnight, each well was washed twice with PBS (composition: […], 0.27 mM KCl, 0.43 mM Na2HPO4, 0.14 mM KH2PO4) and blocked with 300 μl of 1% skim milk in PBS for 30 min. Additionally, each well was washed twice with PBS and added 50 μl of substrate DNA solution (2 pmol/μl). The microtiter plates were kept at room temperature for 30 min. Then, each well was washed twice with PBS and once with H2O.
The microtiter plates were incubated at 30° C. for 1 hour. […] Then, each well was washed twice with 0.05% Tween20 in PBS and once with PBS. […] The optical density (OD) at 405 nm of each well was measured and the percent inhibition was determined by the following expression.
For `O=C(O)C(O)=CC(=O)c1cn(S(=O)(=O)c2ccccc2)c2ccc(Cl)cc12` [Example 23(2), 4-(1-Benzenesulfonyl-5-chloroindol-3-yl)-2-hydroxy-4-oxo-2butenoic acid], the IC50 (in general, the point on the concentration scale where inhibition reaches its midpoint) was 0.32 µM. Turning to `O=C(C=C(O)c1nn[nH]n1)c1cn(S(=O)(=O)c2cccs2)c2ccc(Cl)cc12` [Example 80], it took 7.57 µM to reach half-maximal inhibition (IC50). For `O=C(C=C(O)c1nc[nH]n1)c1c[nH]c2ccc(Cl)cc12` [Example 71], the IC50 was 5.16 µM. The IC50 values of the last two compounds are within 1.5-fold of each other.

Compound `O=C(C=C(O)c1nn[nH]n1)c1cn(Cc2ccccc2)c2ccc(Cl)cc12` [Example 81] showed an IC50 of 9.48 µM.

Tested on in another data set: not given
Assay: not given
Consider `O=C(/C=C(\O)c1nccs1)c1cn(S(=O)(=O)c2ccccc2)c2ccc(Cl)cc12`, for which the melting point (usually the temperature of the solid-liquid transition) lay within 191 to 194 °C. On to `O=C(/C=C(\O)c1nn[nH]n1)c1c(CCCc2ccc(F)cc2)[nH]c2ccc(Cl)cc12`, for which the melting point was 181 to 182 °C (dec.). For the compound `O=C(O)/C(O)=C/C(=O)c1cn(Cc2ccc(C(=O)O)cc2)c2ccc(Cl)cc12`, the melting point was 245 °C (dec.). Still for that read-out and setting: in the case of `O=C(/C=C(\O)c1nc[nH]n1)c1cn(Cc2ccc(F)cc2)c2cc(Cl)ccc12` it was 260 to 263 °C; in that of `O=C(C=C(O)c1nn[nH]n1)c1cn(S(=O)(=O)c2cccs2)c2ccc(Cl)cc12` [Example 80], 243 °C; in that of `O=C(/C=C(\O)c1nc[nH]n1)c1cn(S(=O)(=O)c2ccccc2)c2ccc(Br)cc12`, 290 to 295 °C (dec.). As to `O=C(/C=C(\O)c1nn[nH]n1)c1cn(Cc2ccccc2)c2c(Cl)cccc12`, the melting point was 252 °C (dec.). Take `O=C(O)c1cccc(C(O)=CC(=O)c2cn(S(=O)(=O)c3ccccc3)c3ccc(Cl)cc23)c1`: the melting point is 245 to 255 °C (dec.). Consider `O=C(OC(c1ccccc1)c1ccccc1)C(O)=CC(=O)c1cn(C(=O)c2ccc(F)cc2)c2ccc(Cl)cc12`, for which the melting point was 198 to 200 °C. The same measure, in the same setting: in the case of `O=C(/C=C(\O)c1nc[nH]n1)c1cn(S(=O)(=O)c2ccc(F)cc2)c2ccc(Br)cc12` it was 266 to 270 °C; in that of `O=C(/C=C(\O)c1nc[nH]n1)c1cn(S(=O)(=O)c2cc(Cl)ccc2Cl)c2ccc(Cl)cc12`, 301 to 302 °C. Turning to `O=C(C=C(O)c1nc[nH]n1)c1c[nH]c2ccc(Cl)cc12` [Example 71], the melting point is 277 to 279 °C.

Turning to `O=C(O)c1cccc(C(O)=CC(=O)c2c[nH]c3ccc(Cl)cc23)c1`, the melting point was > 270 °C (dec.). In turn, `CCOCCNC(=CC(=O)c1cn(Cc2ccccc2)c2ccc(Cl)cc12)C(=O)OCC` gave a melting point of 73 to 74 °C.

For `O=C(/C=C(\O)c1ncc[nH]1)c1c[nH]c2ccc(Cl)cc12`, the melting point was 272 to 276 °C. For `O=C(C=C(O)c1nn[nH]n1)c1cn(Cc2ccccc2)c2ccc(Cl)cc12` [Example 81], the melting point was greater than 240 °C. Consider `COc1ccccc1Cc1[nH]c2ccc(Cl)cc2c1C(=O)/C=C(\O)c1nn[nH]n1`, for which the melting point was 245 °C (dec.).

Take `O=C(/C=C(\O)c1nc[nH]n1)c1cn(S(=O)(=O)c2ccc(F)cc2)c2cc(Cl)ccc12`: the melting point is 293 to 298 °C (dec.).

For the compound `CNC(=CC(=O)c1cn(Cc2ccccc2)c2ccc(Cl)cc12)C(=O)O`, the melting point was 205 to 210 °C (dec.). Compound `O=C(/C=C(\O)c1nccs1)c1c[nH]c2ccc(Cl)cc12` gave a melting point of 226 to 227 °C. Regarding `CCOCCNC(=CC(=O)c1cn(Cc2ccccc2)c2ccc(Cl)cc12)C(=O)O`, the melting point was 184 to 186 °C (dec.).

As for `O=C(O)C(O)=CC(=O)c1cn(C(=O)c2ccc(F)cc2)c2ccc(Cl)cc12`, the melting point fell in the range of 213 to 218 °C. `O=C(/C=C(\O)c1nc[nH]n1)c1cn(Cc2ccccc2)c2ccc(Cl)cc12` displayed a melting point of 264 to 265 °C. Still for that read-out and setting: the result for `COC(=O)/C(O)=C/C(=O)c1c(Cc2ccc(F)cc2)[nH]c2ccc(Cl)cc12` reads 235 to 238 °C; that for `CCOC(=O)C(=CC(=O)c1cn(Cc2ccccc2)c2ccc(Cl)cc12)NC`, 131 to 132 °C; that for `O=C(/C=C(\O)c1nc[nH]n1)c1cn(S(=O)(=O)c2ccccc2)c2cc(Cl)ccc12`, 265 to 270 °C. Turning to `COc1ccccc1Cn1cc(C(=O)/C=C(\O)c2nn[nH]n2)c2cc(Cl)ccc21`, the melting point is 256 °C (dec.). With `O=C(/C=C(\O)c1nn[nH]n1)c1c([S+]([O-])c2cc(Cl)cc(Cl)c2)[nH]c2ccc(Cl)cc12` (stereo not shown), the melting point was 200 to 204 °C (dec.).

The compound `O=C(/C=C(\O)c1nc[nH]n1)c1cn(Cc2ccc(F)cc2)c2ccc(Br)cc12` displayed a melting point of 265 to 268 °C. Regarding `CCOC(=O)C(N)=CC(=O)c1c[nH]c2ccccc12`, the melting point is 200 to 205 °C.
